Test results from patent publication US20240043427A1 (Gilead Sciences, Inc., priority 2020, published 2024).
Values joined by “and” are separate entries in the source; they are usually repeats but may differ in a detail not shown here. Equal values may be shown once.

Legend:
CD73 [1] = molecular target: T1, CD73 (Homo sapiens (Human), UniProt P21589); assay: MDA-MB-231 Cell Based CD73 Activity Assay; details: MDA-MB-231-GFP cells, RPMI medium with 10% human plasma, 200 uM AMP
Procedure: MDA-MB-231 Cell Based CD73 Activity Assay
MDA-MB-231-GFP cells were seeded in 384-well plates (Greiner 781946) at a density of 10000 cells per well in 50 μL of RPMI medium with 10% HP (human plasma). Cells were plated into assay plate with compounds pre-spotted, for an overnight compound treatment. 50 μL of 400 μM AMP (final concentration 200 μM) using a Bio-tek dispenser. Plates were incubated for 100 mins. […] The samples were run using Rapid fire.

CD73 [2] = molecular target: T1, CD73; assay: CD73 Biochemical IC50 Assay; details: CD73 0.3 nM, AMP 15 uM, 25 mM Tris pH 7.4, 5 mM MgCl2
Procedure: CD73 Biochemical IC50 Assay
Compound serial dilutions were pre-spotted into Thermo Nunc assay plate. 50 μL CD73 enzyme buffer (CD73 purchased from R&D system=0.6 nM, 25 mM Tris, pH 7.4, 5 mM MgCl2) was added into the assay plate and incubated for 15 mins. […] The samples were run using Rapid fire.

T1 sequence (P21589 27-574): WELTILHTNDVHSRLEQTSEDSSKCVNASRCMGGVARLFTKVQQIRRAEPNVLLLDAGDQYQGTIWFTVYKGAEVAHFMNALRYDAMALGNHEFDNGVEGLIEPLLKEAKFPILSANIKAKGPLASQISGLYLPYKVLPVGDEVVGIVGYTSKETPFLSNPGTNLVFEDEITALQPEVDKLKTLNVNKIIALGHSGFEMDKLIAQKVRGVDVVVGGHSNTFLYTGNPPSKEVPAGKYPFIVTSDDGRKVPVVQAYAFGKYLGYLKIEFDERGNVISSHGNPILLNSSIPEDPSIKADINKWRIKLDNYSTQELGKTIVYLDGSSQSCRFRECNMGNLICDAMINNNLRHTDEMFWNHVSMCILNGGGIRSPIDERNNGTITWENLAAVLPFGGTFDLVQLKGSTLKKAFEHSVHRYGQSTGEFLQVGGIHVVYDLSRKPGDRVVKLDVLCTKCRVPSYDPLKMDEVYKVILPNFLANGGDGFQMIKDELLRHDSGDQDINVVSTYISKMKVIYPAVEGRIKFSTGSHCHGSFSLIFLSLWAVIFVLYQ

EC50 (CD73 [1]) | IC50 (CD73 [2]) | Structure (SMILES)
13.7 nM | 47.2 nM | O=c1[nH]cc(-c2cc([C@H]3C[C@@H]3c3cccc(OC(F)(F)F)c3)c3nccn3n2)c(=O)[nH]1 (racemic) [Example 47, 5-(8-((1S,2S)-2-(3-(trifluoromethoxy)phenyl)cyclopropyl)imidazo[1,2-b]pyridazin-6-yl) pyrimidine-2,4(1H,3H)-dione and 5-(8-((1R,2R)-2-(3-(trifluoromethoxy)phenyl)cyclopropyl)imidazo[1,2-b]pyridazin-6-yl) pyrimidine-2,4(1H,3H)-dione]
6.43 nM | 12.6 nM | O=c1[nH]cc(-c2cc([C@H]3C[C@@H]3c3cc(F)cc(F)c3)c3nccn3n2)c(=O)[nH]1 (racemic) [Example 60, 5-(8-((1S,2S)-2-(3,5-difluorophenyl)cyclopropyl)imidazo[1,2-b]pyridazin-6-yl)pyrimidine-2,4(1H,3H)-dione and 5-(8-((1R,2R)-2-(3,5-difluorophenyl)cyclopropyl)imidazo[1,2-b]pyridazin-6-yl)pyrimidine-2,4(1H,3H)-dione]
6.71 nM | 13.2 nM | O=c1[nH]cc(-c2cc([C@H]3C[C@@H]3c3cc(F)ccc3F)c3nccn3n2)c(=O)[nH]1 (racemic) [Example 65, 5-(8-((1S,2S)-2-(2,5-difluorophenyl)cyclopropyl)imidazo[1,2-b]pyridazin-6-yl)pyrimidine-2,4(1H,3H)-dione and 5-(8-((1R,2R)-2-(2,5-difluorophenyl)cyclopropyl)imidazo[1,2-b]pyridazin-6-yl)pyrimidine-2,4(1H,3H)-dione]
540 nM | 170 nM | O=c1[nH]cc(-c2cc([C@H]3C[C@@H]3c3cccc4ccccc34)c3nccn3n2)c(=O)[nH]1 (racemic) [Example 74, 5-[8-[(1S,2S)-2-(1-naphthyl)cyclopropyl]imidazo[1,2-b]pyridazin-6-yl]-1H-pyrimidine-2,4-dione and 5-[8-[(1R,2R)-2-(1-naphthyl)cyclopropyl]imidazo[1,2-b]pyridazin-6-yl]-1H-pyrimidine-2,4-dione]
2.48 nM | 26.5 nM | O=c1[nH]cc(-c2cc([C@H]3C[C@@H]3c3ccc(F)cc3)c3ncc(F)n3n2)c(=O)[nH]1 (racemic) [Example 76, 5-[3-fluoro-8-[(1S,2S)-2-(4-fluorophenyl)cyclopropyl]imidazo[1,2-b]pyridazin-6-yl]-1H-pyrimidine-2,4-dione and 5-[3-fluoro-8-[(1R,2R)-2-(4-fluorophenyl)cyclopropyl]imidazo[1,2-b]pyridazin-6-yl]-1H-pyrimidine-2,4-dione]
39.1 nM | 49.5 nM | O=c1[nH]cc(-c2cc([C@H]3C[C@@H]3c3ccc(F)c(C(F)(F)F)c3)c3nccn3n2)c(=O)[nH]1 (racemic) [Example 95, 5-(8-((1S,2S)-2-(4-fluoro-3-(trifluoromethyl)phenyl)cyclopropyl)imidazo[1,2-b]pyridazin-6-yl)pyrimidine-2,4(1H,3H)-dione and 5-(8-((1R,2R)-2-(4-fluoro-3-(trifluoromethyl)phenyl)cyclopropyl)imidazo[1,2-b]pyridazin-6-yl)pyrimidine-2,4(1H,3H)-dione]
6.05 nM | 19.3 nM | O=c1[nH]cc(-c2cc([C@H]3C[C@@H]3c3ccc(F)c(Cl)c3)c3nccn3n2)c(=O)[nH]1 (racemic) [Example 99, 5-(8-((1S,2S)-2-(3-chloro-4-fluorophenyl)cyclopropyl)imidazo[1,2-b]pyridazin-6-yl)pyrimidine-2,4(1H,3H)-dione and 5-(8-((1R,2R)-2-(3-chloro-4-fluorophenyl)cyclopropyl)imidazo[1,2-b]pyridazin-6-yl)pyrimidine-2,4(1H,3H)-dione]
38.5 nM | 285 nM | O=c1[nH]cc(-c2cc([C@H]3C[C@@H]3Cc3ccccc3)c3nccn3n2)c(=O)[nH]1 (racemic) [Example 105, 5-(8-((1S,2R)-2-benzylcyclopropyl)imidazo[1,2-b]pyridazin-6-yl)pyrimidine-2,4(1H,3H)-dione and 5-(8-((1R,2S)-2-benzylcyclopropyl)imidazo[1,2-b]pyridazin-6-yl)pyrimidine-2,4(1H,3H)-dione]
71.5 nM | 205 nM | N#Cc1ccc(C[C@H]2C[C@@H]2c2cc(-c3c[nH]c(=O)[nH]c3=O)nn3ccnc23)cc1 (racemic) [Example 111, 4-(41R,2S)-2-(6-(2,4-dioxo-1,2,3,4-tetrahydropyrimidin-5-yl)imidazo[1,2-b]pyridazin-8-yl)cyclopropyl)methyl)benzonitrile and 4-(((1S,2R)-2-(6-(2,4-dioxo-1,2,3,4-tetrahydropyrimidin-5-yl)imidazo[1,2-b]pyridazin-8-yl)cyclopropyl)methyl)benzonitrile]
67.5 nM | 69.5 nM | O=c1[nH]cc(-c2cc(N3CCC(c4ccc(F)cc4)C3)c3nccn3n2)c(=O)[nH]1 (stereo in doubt) [Example 68, 5-[8-[(3S)-3-(4-fluorophenyl)pyrrolidin-1-yl]imidazo[1,2-b]pyridazin-6-yl]-1H-pyrimidine-2,4-dione]
413 nM | 507 nM | Cc1cn2nc(-c3c[nH]c(=O)[nH]c3=O)cc(C3CC3)c2n1 [Example 1, 5-(8-cyclopropyl-2-methyl-imidazo[1,2-b]pyridazin-6-yl)-1H-pyrimidine-2,4-dione]
53.3 nM | 32.4 nM | O=c1[nH]cc(-c2cc(C3CC3)c3nc(-c4ccccc4)cn3n2)c(=O)[nH]1 [Example 2, 5-(8-cyclopropyl-2-phenyl-imidazo[1,2-b]pyridazin-6-yl)-1H-pyrimidine-2,4-dione]
195 nM | 235 nM | CCOC(=O)c1cn2nc(-c3c[nH]c(=O)[nH]c3=O)cc(C3CC3)c2n1 [Example 3, Ethyl 8-cyclopropyl-6-(2,4-dioxo-1H-pyrimidin-5-yl)imidazo[1,2-b]pyridazine-2-carboxylate]
473 nM | 980 nM | O=c1[nH]cc(-c2cc(N3CCOCC3)c3nccn3n2)c(=O)[nH]1 [Example 10, 5-(8-morpholinoimidazo[1,2-b]pyridazin-6-yl)-1H-pyrimidine-2,4-dione]
74.1 nM | 110 nM | O=c1[nH]cc(-c2cc(-n3ccnc3)c3nccn3n2)c(=O)[nH]1 [Example 11, 5-(8-imidazol-1-ylimidazo[1,2-b]pyridazin-6-yl)-1H-pyrimidine-2,4-dione]
508 nM and 689 nM | 479 nM and 653 nM | O=c1[nH]cc(-c2cc(NCc3ccccc3)c3nccn3n2)c(=O)[nH]1 [Example 12, 5-(8-(benzylamino)imidazo[1,2-b]pyridazin-6-yl)pyrimidine-2,4(1H,3H)-dione]
692 nM and 896 nM | 368 nM and 607 nM | CN(Cc1ccccc1)c1cc(-c2c[nH]c(=O)[nH]c2=O)nn2ccnc12 [Example 13, 5-(8-(benzyl(methyl)amino)imidazo[1,2-b]pyridazin-6-yl)pyrimidine-2,4(1H,3H)-dione]
79.2 nM | 301 nM | O=c1[nH]cc(-c2cc(C3CCC(F)(F)CC3)c3nccn3n2)c(=O)[nH]1 [Example 14, 5-(8-(4,4-difluorocyclohexyl)imidazo[1,2-b]pyridazin-6-yl)pyrimidine-2,4(1H,3H)-dione]
920 nM | 2350 nM | CC(C)c1cc(-c2c[nH]c(=O)[nH]c2=O)nn2cc(C(F)(F)F)nc12 [Example 15, 5-(8-isopropyl-2-(trifluoromethyl)imidazo[1,2-b]pyridazin-6-yl)pyrimidine-2,4(1H,3H)-dione]
333 nM | 362 nM | CC(C)c1cc(-c2c[nH]c(=O)[nH]c2=O)nn2cnnc12 [Example 16, 5-(8-isopropyl-[1,2,4]triazolo[4,3-b]pyridazin-6-yl)pyrimidine-2,4(1H,3H)-dione]
3670 nM | > 2500 nM | O=c1[nH]cc(-c2cc(Cc3ccccc3)c3nccn3n2)c(=O)[nH]1 [Example 17, 5-(8-benzylimidazo[1,2-b]pyridazin-6-yl)-1H-pyrimidine-2,4-dione]
20400 nM | > 2500 nM | O=c1[nH]cc(-c2cc(C3(C(F)(F)F)CC3)c3nccn3n2)c(=O)[nH]1 [Example 18, 5-[8-[1-(trifluoromethyl)cyclopropyl]imidazo[1,2-b]pyridazin-6-yl]-1H-pyrimidine-2,4-dione]
> 25000 nM | > 2500 nM | O=c1[nH]cc(-c2cc(C3(C(F)(F)F)CC3)c3nc(C4(C(F)(F)F)CC4)cn3n2)c(=O)[nH]1 [Example 19, 5-[2,8-bis[1-(trifluoromethyl)cyclopropyl]imidazo[1,2-b]pyridazin-6-yl]-1H-pyrimidine-2,4-dione]
> 25000 nM | > 2500 nM | O=c1[nH]cc(-c2cc(CS(=O)(=O)c3ccccc3)c3nccn3n2)c(=O)[nH]1 [Example 20, 5-[8-(benzenesulfonylmethyl)imidazo[1,2-b]pyridazin-6-yl]-1H-pyrimidine-2,4-dione]
> 25000 nM | > 2500 nM | O=c1[nH]cc(-c2cc(CS(=O)(=O)c3ccccc3)c3nc(CS(=O)(=O)c4ccccc4)cn3n2)c(=O)[nH]1 [Example 21, 5-[2,8-bis(benzenesulfonylmethyl)imidazo[1,2-b]pyridazin-6-yl]-1H-pyrimidine-2,4-dione]
> 25000 nM | > 2500 nM | O=c1[nH]cc(-c2ccc3nccn3n2)c(=O)[nH]1 [Example 23, 5-(imidazo[1,2-b]pyridazin-6-yl)pyrimidine-2,4(1H,3H)-dione]
1230 nM | 1260 nM | O=c1[nH]cc(-c2cc(OC3CC3)c3nccn3n2)c(=O)[nH]1 [Example 24, 5-(8-cyclopropoxyimidazo[1,2-b]pyridazin-6-yl)pyrimidine-2,4(1H,3H)-dione]
